According to patent US9073855B2, “BCL-2 selective apoptosis-inducing agents for the treatment of cancer and immune diseases” (AbbVie Inc., priority 2008, dated 2015):

Legend:
GST-Bcl-2 = GST-Bcl-2 (Homo sapiens, UniProt P10415); assay: TR-FRET binding assay, GST-Bcl-2 with F-Bak peptide probe; conditions: TR-FRET Binding Affinity, GST-Bcl-2, F-Bak peptide probe
Method in brief: (§1)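 Competitive TR-FRET: GST-fusion protein, fluorescent Bak peptide probe and Tb-labelled anti-GST antibody incubated with compound dilution series (starting 50 μM as 2× stock, 10% DMSO) for 3 h at RT. Excitation 340/35 nm; Ki derived via Wang's exact competitive-binding equation.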

FL5.12/Bcl-2 cells = assay: FL5.12/Bcl-2 cell viability assay under IL-3 withdrawal (CellTitre Glo); type: cell-based, murine; conditions: Mus musculus, IL-3 withdrawn 48 hrs, then 24 hrs with compound
From the text: FL5.12 is an IL-3 dependent prolymphocytic murine cell line that undergoes apoptosis upon IL-3 withdrawal as a result of the upregulation of pro-apoptotic Bcl-2 proteins such as Bim and Puma. Stable overexpression of anti-apoptotic Bcl-2 protein (FL5.12/Bcl-2) protects against apoptosis induced by IL-3 withdrawal by sequestration of Bim and Puma. […] The ability of compounds to kill FL5.12/Bcl-2 cells upon IL-3 withdrawal is a direct measure of the compounds' ability to inhibit anti-apoptotic Bcl-2 protein function.
Wild type FL5.12/Bcl-2 overexpressing stable transfectants were cultured in RPMI-1640 supplemented with 2 mM L-glutamine, 10% FBS, 1 mM sodium pyruvate, 2 mM HEPES, 1% penicillin/streptomycin (Invitrogen), 57 μM β-ME, and 10% WEHI-3B conditioned medium (source of IL-3) and maintained at 37° C. containing 5% CO2. 1×10^6 cells/ml were washed 1×PBS and resuspended in medium not supplemented with 10% WEHI-3B for 48 hrs prior to cytotoxicity assays. Cells were then treated for an additional 24 hrs in the presence of various concentrations of the indicated compounds. Cell viability was assessed by CellTitre Glo assay (Promega Corp.) according to the manufacturer's recommendations.

GST-Bcl-XL = GST-Bcl-XL (Homo sapiens, UniProt Q07817); assay: TR-FRET binding assay, GST-Bcl-XL with F-Bak peptide probe; conditions: TR-FRET Binding Affinity, GST-Bcl-XL, F-Bak peptide probe
Method in brief: as §1

Chain of GST-Bcl-2 (P10415 whole entry, the tested form may be a part): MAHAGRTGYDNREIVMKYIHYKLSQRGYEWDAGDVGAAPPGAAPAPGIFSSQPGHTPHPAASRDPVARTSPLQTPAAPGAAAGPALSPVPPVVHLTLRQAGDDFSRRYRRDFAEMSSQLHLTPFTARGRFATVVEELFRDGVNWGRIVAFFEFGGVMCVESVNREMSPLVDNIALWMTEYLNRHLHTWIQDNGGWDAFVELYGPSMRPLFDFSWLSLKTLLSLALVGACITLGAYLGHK
Chain of GST-Bcl-XL (Q07817 whole entry): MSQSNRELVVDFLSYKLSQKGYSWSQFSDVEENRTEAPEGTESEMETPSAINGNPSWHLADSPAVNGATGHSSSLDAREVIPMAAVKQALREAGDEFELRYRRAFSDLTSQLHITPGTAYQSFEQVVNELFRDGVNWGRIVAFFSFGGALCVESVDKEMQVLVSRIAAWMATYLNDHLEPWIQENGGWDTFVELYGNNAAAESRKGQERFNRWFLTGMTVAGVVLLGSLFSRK

Row | SMILES | Ki (GST-Bcl-2) | EC50 (FL5.12/Bcl-2 cells) | Ki (GST-Bcl-XL)
1 | CC1(C)CC(c2ccc(Cl)cc2)=C(CN2CCN(c3ccc(C(=O)NS(=O)(=O)c4ccc(NCC5CCOCC5)c([N+](=O)[O-])c4)c(Oc4ccc5[nH]ccc5c4)c3)CC2)CO1 [Example 182, 4-(4-{[4-(4-chlorophenyl)-6,6-dimethyl-5,6-dihydro-2H-pyran-3-yl]methyl}piperazin-1-yl)-2-(1H-indol-5-yloxy)-N-({3-nitro-4-[(tetrahydro-2H-pyran-4-ylmethyl)amino]phenyl}sulfonyl)benzamide] | 0.087 nM | 12.4 nM | > 660 nM
2 | CN1CCC(O)(CNc2ccc(S(=O)(=O)NC(=O)c3ccc(N4CCN(CC5=C(c6ccc(Cl)cc6)CC(C)(C)CC5)CC4)cc3Oc3ccc4[nH]ccc4c3)cc2[N+](=O)[O-])CC1 [Example 183, 4-(4-{[2-(4-chlorophenyl)-4,4-dimethylcyclohex-1-en-1-yl]methyl}piperazin-1-yl)-N-[(4-{[(4-hydroxy-1-methylpiperidin-4-yl)methyl]amino}-3-nitrophenyl)sulfonyl]-2-(1H-indol-5-yloxy)benzamide] | 0.039 nM | 30.8 nM | 9.43 nM
3 | CN1CCC(Nc2ccc(S(=O)(=O)NC(=O)c3ccc(N4CCN(CC5=C(c6ccc(Cl)cc6)CC(C)(C)CC5)CC4)c(F)c3Oc3ccc4[nH]ccc4c3)cc2[N+](=O)[O-])CC1 [Example 184, 4-(4-{[2-(4-chlorophenyl)-4,4-dimethylcyclohex-1-en-1-yl]methyl}piperazin-1-yl)-3-fluoro-2-(1H-indol-5-yloxy)-N-({4-[(1-methylpiperidin-4-yl)amino]-3-nitrophenyl}sulfonyl)benzamide] | 0.281 nM | 27 nM | > 660 nM
4 | CC1(C)CCC(CN2CCN(c3ccc(C(=O)NS(=O)(=O)c4ccc(NC5CCN(C6CCOCC6)CC5)c([N+](=O)[O-])c4)c(Oc4ccc5[nH]ccc5c4)c3F)CC2)=C(c2ccc(Cl)cc2)C1 [Example 185, 4-(4-{[2-(4-chlorophenyl)-4,4-dimethylcyclohex-1-en-1-yl]methyl}piperazin-1-yl)-3-fluoro-2-(1H-indol-5-yloxy)-N-({3-nitro-4-[(1-tetrahydro-2H-pyran-4-ylpiperidin-4-yl)amino]phenyl}sulfonyl)benzamide] | 0.228 nM | 63.4 nM | 82.6 nM
5 | CN1CCC(O)(CNc2ccc(S(=O)(=O)NC(=O)c3ccc(N4CCN(CC5=C(c6ccc(Cl)cc6)CC(C)(C)CC5)CC4)cc3Oc3cccc4[nH]ccc34)cc2[N+](=O)[O-])CC1 [Example 186, 4-(4-{[2-(4-chlorophenyl)-4,4-dimethylcyclohex-1-en-1-yl]methyl}piperazin-1-yl)-N-[(4-{[(4-hydroxy-1-methylpiperidin-4-yl)methyl]amino}-3-nitrophenyl)sulfonyl]-2-(1H-indol-4-yloxy)benzamide] | 0.01 nM | 20.4 nM | 11.2 nM
6 | CC1(C)CCC(CN2CCN(c3ccc(C(=O)NS(=O)(=O)c4ccc(N[C@@H]5CCN(Cc6ccccc6)C[C@@H]5O)c([N+](=O)[O-])c4)c(Oc4ccc5[nH]ccc5c4)c3)CC2)=C(c2ccc(Cl)cc2)C1 [Example 187, N-[(4-{[(3S,4R)-1-benzyl-3-hydroxypiperidin-4-yl]amino}-3-nitrophenyl)sulfonyl]-4-(4-{[2-(4-chlorophenyl)-4,4-dimethylcyclohex-1-en-1-yl]methyl}piperazin-1-yl)-2-(1H-indol-5-yloxy)benzamide] | 0.329 nM | 341 nM | > 660 nM
7 | CC1(C)CCC(CN2CCN(c3ccc(C(=O)NS(=O)(=O)c4ccc(NCC5(N)CCOCC5)c([N+](=O)[O-])c4)c(Oc4ccc5[nH]ccc5c4)c3)CC2)=C(c2ccc(Cl)cc2)C1 [Example 188, N-[(4-{[(4-aminotetrahydro-2H-pyran-4-yl)methyl]amino}-3-nitrophenyl)sulfonyl]-4-(4-{[2-(4-chlorophenyl)-4,4-dimethylcyclohex-1-en-1-yl]methyl}piperazin-1-yl)-2-(1H-indol-5-yloxy)benzamide] | 0.102 nM | 24.7 nM | 115 nM
8 | COCCN1CCC(Nc2ccc(S(=O)(=O)NC(=O)c3ccc(N4CCN(CC5=C(c6ccc(Cl)cc6)CC(C)(C)CC5)CC4)cc3Oc3ccc4[nH]ccc4c3)cc2[N+](=O)[O-])CC1 [Example 189, 4-(4-{[2-(4-chlorophenyl)-4,4-dimethylcyclohex-1-en-1-yl]methyl}piperazin-1-yl)-2-(1H-indol-5-yloxy)-N-[(4-{[1-(2-methoxyethyl)piperidin-4-yl]amino}-3-nitrophenyl)sulfonyl]benzamide] | 0.144 nM | 14.9 nM | 51.7 nM
9 | CN1CCN(Nc2ccc(S(=O)(=O)NC(=O)c3ccc(N4CCN(CC5=C(c6ccc(Cl)cc6)CC(C)(C)CC5)CC4)cc3Oc3cccc4[nH]ccc34)cc2[N+](=O)[O-])CC1 [Example 190, 4-(4-{[2-(4-chlorophenyl)-4,4-dimethylcyclohex-1-en-1-yl]methyl}piperazin-1-yl)-2-(1H-indol-4-yloxy)-N-({4-[(4-methylpiperazin-1-yl)amino]-3-nitrophenyl}sulfonyl)benzamide] | 0.512 nM | 24.2 nM | 97.1 nM
10 | CC1(C)CCC(CN2CCN(c3ccc(C(=O)NS(=O)(=O)c4ccc(NC5CCN(CCO)CC5)c([N+](=O)[O-])c4)c(Oc4cccc5[nH]ccc45)c3)CC2)=C(c2ccc(Cl)cc2)C1 [Example 191, 4-(4-{[2-(4-chlorophenyl)-4,4-dimethylcyclohex-1-en-1-yl]methyl}piperazin-1-yl)-N-[(4-{[1-(2-hydroxyethyl)piperidin-4-yl]amino}-3-nitrophenyl)sulfonyl]-2-(1H-indol-4-yloxy)benzamide] | 0.073 nM | 11.7 nM | 9.16 nM
11 | COCCN1CCC(Nc2ccc(S(=O)(=O)NC(=O)c3ccc(N4CCN(CC5=C(c6ccc(Cl)cc6)CC(C)(C)CC5)CC4)cc3Oc3cccc4[nH]ccc34)cc2[N+](=O)[O-])CC1 [Example 194, 4-(4-{[2-(4-chlorophenyl)-4,4-dimethylcyclohex-1-en-1-yl]methyl}piperazin-1-yl)-2-(1H-indol-4-yloxy)-N-[(4-{[1-(2-methoxyethyl)piperidin-4-yl]amino}-3-nitrophenyl)sulfonyl]benzamide] | 0.151 nM | 27 nM | 32 nM
12 | CC1(C)CCC(CN2CCN(c3ccc(C(=O)NS(=O)(=O)c4ccc(NC5CCN(CCCO)CC5)c([N+](=O)[O-])c4)c(Oc4cccc5[nH]ccc45)c3)CC2)=C(c2ccc(Cl)cc2)C1 [Example 195, 4-(4-{[2-(4-chlorophenyl)-4,4-dimethylcyclohex-1-en-1-yl]methyl}piperazin-1-yl)-N-[(4-{[1-(3-hydroxypropyl)piperidin-4-yl]amino}-3-nitrophenyl)sulfonyl]-2-(1H-indol-4-yloxy)benzamide] | 0.039 nM | 11.2 nM | 6.71 nM
13 | CN(C)CCCc1cccc(-c2ccc(Cl)cc2)c1CN1CCN(c2ccc(C(=O)NS(=O)(=O)c3ccc(NCC4CCOCC4)c([N+](=O)[O-])c3)c(Oc3cccc4[nH]ccc34)c2)CC1 [Example 196, 4-[4-({4′-chloro-3-[3-(dimethylamino)propyl]-1,1′-biphenyl-2-yl}methyl)piperazin-1-yl]-2-(1H-indol-4-yloxy)-N-({3-nitro-4-[(tetrahydro-2H-pyran-4-ylmethyl)amino]phenyl}sulfonyl)benzamide] | 0.032 nM | 12.4 nM | > 660 nM
14 | CC1(C)CCC(CN2CCN(c3ccc(C(=O)NS(=O)(=O)c4ccc(NC5CCN(CCCO)CC5)c([N+](=O)[O-])c4)c(Oc4ccc5[nH]ccc5c4)c3)CC2)=C(c2ccc(Cl)cc2)C1 [Example 197, 4-(4-{[2-(4-chlorophenyl)-4,4-dimethylcyclohex-1-en-1-yl]methyl}piperazin-1-yl)-N-[(4-{[1-(3-hydroxypropyl)piperidin-4-yl]amino}-3-nitrophenyl)sulfonyl]-2-(1H-indol-5-yloxy)benzamide] | 0.025 nM | 6.18 nM | 4.84 nM
15 | CN(C)CCOc1cccc(-c2ccc(Cl)cc2)c1CN1CCN(c2ccc(C(=O)NS(=O)(=O)c3ccc(NC4CCN(C5CCOCC5)CC4)c([N+](=O)[O-])c3)c(Oc3cccc4[nH]ccc34)c2)CC1 [Example 199, 4-[4-({4′-chloro-3-[2-(dimethylamino)ethoxy]-1,1′-biphenyl-2-yl}methyl)piperazin-1-yl]-2-(1H-indol-4-yloxy)-N-({3-nitro-4-[(1-tetrahydro-2H-pyran-4-ylpiperidin-4-yl)amino]phenyl}sulfonyl)benzamide] | 0.014 nM | 28.5 nM | 5.23 nM
